Measurements published in US6608027B1, “Macrocyclic peptides active against the hepatitis C virus” (Boehringer Ingelheim (Canada) Ltd, priority 1999, dated 2003).
Like-named read-outs stand apart in the source and are kept apart here.

What was measured:
[1] = target: T1, His-NS3-NS4AFL (full-length NS3-NS4A protein complex) (Hepatitis C virus genotype 1b, UniProt P26663); experiment: Full-length NS3-NS4A heterodimer protein fluorogenic assay; type: biochemical, HCV genotype 1b
T1 construct: made in house; host or cells: Sf21 insect cells, recombinant baculovirus (Bac-to-Bac, pFastBac HTa)
T1 sequence (P26663 1658-1711): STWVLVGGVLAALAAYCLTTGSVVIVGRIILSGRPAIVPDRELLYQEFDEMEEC
T1 sequence (P26663 1027-1657): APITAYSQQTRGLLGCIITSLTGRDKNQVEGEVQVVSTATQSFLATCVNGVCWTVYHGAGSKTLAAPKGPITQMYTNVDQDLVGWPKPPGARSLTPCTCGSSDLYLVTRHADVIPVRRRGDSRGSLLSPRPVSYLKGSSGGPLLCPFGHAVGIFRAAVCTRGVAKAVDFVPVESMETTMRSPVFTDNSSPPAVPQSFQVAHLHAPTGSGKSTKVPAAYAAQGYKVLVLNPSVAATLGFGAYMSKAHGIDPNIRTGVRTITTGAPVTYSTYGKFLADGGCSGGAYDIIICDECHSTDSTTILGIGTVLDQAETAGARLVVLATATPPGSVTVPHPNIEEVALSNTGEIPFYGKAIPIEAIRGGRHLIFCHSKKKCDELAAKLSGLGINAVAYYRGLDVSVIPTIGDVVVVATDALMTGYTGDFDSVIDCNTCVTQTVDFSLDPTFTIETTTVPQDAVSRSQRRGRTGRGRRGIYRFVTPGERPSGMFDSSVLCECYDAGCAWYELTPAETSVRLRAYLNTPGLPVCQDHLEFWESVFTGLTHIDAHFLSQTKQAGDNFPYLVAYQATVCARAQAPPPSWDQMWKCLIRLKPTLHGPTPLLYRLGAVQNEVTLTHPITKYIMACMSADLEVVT
Text: The NS2-NS5B-3′non coding region was cloned by RT-PCR into the pCR®3 vector (Invitrogen) using RNA extracted from the serum of an HCV genotype 1b infected individual (provided by Dr. Bernard Willems, Hôpital St-Luc, Montréal, Québec, Canada). The NS3-NS4A region (NS3-NS4AFL) was then subcloned by PCR into the pFastBac™ HTa baculovirus expression vector (Gibco/BRL). The vector sequence includes a region encoding a 28-residue N-terminal sequence which contains a hexahistidine tag. The Bac-to-Bac™ baculovirus expression system (Gibco/BRL) was used to produce the recombinant baculovirus. His-NS3-NS4AFL was expressed by infecting 10^6 Sf21 cells/mL with the recombinant baculovirus at a multiplicity of infection of 0.1-0.2 at 27°. Authentic auto-proteolysis occurs during expression to produce a non covalent and stable NS3-NS4A protein complex (referred to as full-length “FL”). The infected culture was harvested 48 to 64 h later by centrifugation at 4°. The cell pellet was homogenized in 50 mM NaPO4, pH 7.5, 40% glycerol (w/v), 2 mM β-mercaptoethanol, in presence of a cocktail of protease inhibitors. His-NS3-NS4AFL was then extracted from the cell lysate with 1.5% NP-40, 0.5% Triton X-100, 0.5M NaCl, and a DNase treatment. After ultracentrifugation, the soluble extract was diluted 4-fold and bound on a Pharmacia Hi-Trap Ni-chelating column. The His-NS3-NS4AFL was eluted in a >90% pure form (as judged by SDS-PAGE), using a 50 to 400 mM imidazole gradient. The His-NS3-NS4AFL was stored at −80° in 50 mM sodium phosphate, pH 7.5, 10% (w/v) glycerol, 0.5 M NaCl, 0.25 M imidazole, 0.1% NP-40. It was thawed on ice and diluted just prior to use.
The protease activity of His-NS3-NS4AFL was assayed in 50 mM Tris-HCl, pH 8.0, 0.25 M sodium citrate, 0.01% (w/v) n-dodecyl-β-D-maltoside, 1 mM TCEP. Five (5) μM of the internally quenched substrate anthranilyl-DDIVPAbu[C(O)—O]-AMY(3-NO2)TW-OH (SEQ. ID NO.: 1) in presence of various concentrations of inhibitor were incubated with 1.5 nM of His-NS3-NS4AFL for 45 min at 23°. […] The reaction was terminated with the addition of 1M MES, pH 5.8. Fluorescence of the N-terminal product was monitored on a Perkin-Elmer LS-50B fluorometer equipped with a 96-well plate reader (excitation wavelength: 325 nm, emission wavelength: 423 nm).
The % inhibition was calculated with the following equation:
100−[(fluoinh−fluoblank)/(fluoctl−fluoblank)×100]
A non-linear curve fit with the Hill model was applied to the inhibition-concentration data, and the 50% effective concentration (IC50) was calculated by the use of SAS software (Statistical Software System; SAS Institute, Inc. Cary, N.C.).

NS3 protease = target: T2, NS3 protease (Hepatitis C virus genotype 1b, UniProt P26663); experiment: NS3 protease cell-based assay (SEAP reporter, Huh-7 cells); parameters: species or system HCV; conditions: SEAP activity, 24-hour incubation, read-out: cell. act. (EC50 code)
T2 construct: expressed in transfected cells; host or cells: Huh-7 human hepatoma cells, transient co-transfection (CMV promoter)
T2 sequence (P26663 1658-1711): as the sequence (P26663 1658-1711) above
T2 sequence (P26663 1027-1657): as the sequence (P26663 1027-1657) above
Text: This assay is done with Huh-7 cells, a human cell line derived from a hepatoma, co-transfected with 2 DNA constructs: one (called NS3) expressing part of the HCV non-structural polyprotein fused to the tTA protein through an NS5A-NS5B cleavage site in the following order: NS3-NS4A-NS4B-NS5A-(NS5B)tTA where (NS5B) represents the 6 first amino acids of NS5
B. This polyprotein is expressed under the control of the CMV promoter, the other (called SEAP) expressing the reporter protein, secreted alkaline phosphatase (SEAP), under the regulation of a tTA-responsive promoter. The first construct leads to the expression of a polyprotein from which the different mature proteins are released through cleavage by the NS3 protease. It is believed that the mature viral proteins forms a complex at the membrane of the endoplasmic reticulum. tTA is a fusion protein, described by Gossen and Bujard (Proc. Natl. Acad. Sci. USA 89 (1992): 5547-5551), which contains a DNA-binding domain and a transcriptional activator. Release of the tTA protein requires an NS3-dependent cleavage at the NS5A-NS5B cleavage site between NS5A and itself. This last cleavage allows tTA to migrate to the nucleus and transactivate the SEAP gene. Therefore, reduction of NS3 proteolytic activity leads to confinement of tTA to the cytoplasm and concomitant decrease in SEAP activity.
To control for cellular activities other than inhibition of NS3 protease which are due to the compound, a parallel co-transfection is done with a construct expressing tTA alone and the same reporter construct such that SEAP activity is independent of the NS3 protease.
Protocol of the assay: Huh-7 cells, grown in CHO-SFMII (Life Technologies)+10% FCS (fetal calf serum) were co-transfected with the two DNA constructs in the following proportions: 7 μg NS3+500 ng SEAP+[…] FuGENE (Boehringer Mannheim) per 4×10^6 Huh-7 cells. After 5 hours at 37° C., the cells were washed, trypsinized and plated (at 80 000 cells/well) in 96-well plates containing a range of concentrations of the compounds to be tested. After a 24-hour incubation period, the SEAP activity in the medium was measured with the Phospha-Light kit (Tropix).
Analysis of the percent inhibition of SEAP activity with respect to compound concentration was performed with the SAS software to obtain the EC50.

[2] = fluorogenic assay of Example 48, no asterisk, read-out: enzyme activity (IC50 grade)

Structure (SMILES) | IC50 [1, 2] [nM] | further results
CC(=O)N[C@H]1CCC/C=C/CC[C@@H]2C[C@@]2(C(=O)O)NC(=O)[C@@H]2CC(Oc3ccnc4ccccc34)CN2C1=O (stereo partly shown) [Compound 203] |  | IC50 [1]: > 1000 nM
COc1ccc2c(O[C@@H]3C[C@H]4C(=O)N[C@]5(C(=O)O)CC5CC/C=C/CO[C@H](C)[C@H](NC(=O)OC(C)(C)C)C(=O)N4C3)cc(-c3ccccc3)nc2c1 (stereo partly shown) [Compound 404] | 100 to 1000 | 
COc1ccc2c(O[C@@H]3C[C@H]4C(=O)N[C@]5(C(=O)O)C[C@H]5/C=C\CCCCCC[C@H](NC(=O)OC(C)(C)C)C(=O)N4C3)cc(-c3csc(NC(C)=O)n3)nc2c1 [Compound 307] | < 100 | 
COc1ccc2c(O[C@@H]3C[C@H]4C(=O)N[C@]5(C(=O)O)C[C@@H]5/C=C/COCCC[C@H](NC(=O)OC(C)(C)C)C(=O)N4C3)cc(-c3ccccc3)nc2c1 [Compound 303] | 100 to 1000 | 
COc1ccc2c(O[C@@H]3C[C@H]4C(=O)N[C@]5(C(=O)O)C[C@@H]5/C=C/CCC[C@H](NC(=O)OC(C)(C)C)C(=O)N4C3)cc(-c3ccccc3)nc2c1 [Compound 302] | > 1000 | 
COc1ccc2c(O[C@@H]3C[C@H]4C(=O)N[C@]5(C(=O)O)CC5/C=C\CCCCC[C@H](NC(=O)NC(C)(C)C)C(=O)N4C3)cc(-c3ccccc3)nc2c1 (stereo partly shown) [Compound 209] |  | IC50 [1]: < 100 nM
COc1ccc2c(O[C@@H]3C[C@H]4C(=O)N[C@]5(C(=O)O)C[C@H]5CC/C=C/CS[C@@H](C)[C@H](NC(=O)OC(C)(C)C)C(=O)N4C3)cc(-c3ccccc3)nc2c1 [Compound 410] | < 100 | 
CCOc1cc(O[C@@H]2C[C@H]3C(=O)N[C@]4(C(=O)O)C[C@H]4/C=C\CCCCC[C@H](NC(C)=O)C(=O)N3C2)c2ccc(OC)cc2n1 [Compound 308] | < 100 | 
COc1ccc2c(O[C@@H]3C[C@H]4C(=O)N[C@]5(C(=O)O)C[C@@H]5/C=C\CCCCC[C@H](NC(=O)OC(C)(C)C)C(=O)N4C3)cc(-c3nccs3)nc2c1 [Compound 220] |  | IC50 [1]: < 100 nM
COc1ccc2c(O[C@@H]3C[C@H]4C(=O)N[C@]5(C(=O)O)C[C@H]5CCCCCCC[C@H](NC(=O)OC(C)(C)C)C(=O)N4C3)cc(-c3ccccc3)nc2c1 [Compound 215] |  | IC50 [1]: < 100 nM
COc1ccc2c(OC3CC4C(=O)NC5(C(=O)O)CC5CCC=CCSC(C)(C)C(NC(=O)OC(C)(C)C)C(=O)N4C3)cc(-c3ccccc3)nc2c1 (stereo not shown) [Compound 412] | > 1000 | 
CC(C)(C)OC(=O)N[C@H]1CCCC(O)C(O)CC[C@@H]2C[C@@]2(C(=O)O)NC(=O)[C@@H]2CC(Oc3ccnc4ccccc34)CN2C1=O (stereo partly shown) [Compound 205] |  | IC50 [1]: 100 to 1000 nM
COc1ccc2c(O[C@@H]3C[C@H]4C(=O)N[C@]5(C(=O)O)CC5CCCCN(C(C)=O)CC[C@H](NC(=O)OC(C)(C)C)C(=O)N4C3)cc(-c3ccccc3)nc2c1 (stereo partly shown) [Compound 508] | < 100 | 
COc1ccc2c(O[C@@H]3C[C@H]4C(=O)N[C@]5(C(=O)O)CC5CCCCCO[C@H](C)[C@H](NC(=O)OC(C)(C)C)C(=O)N4C3)cc(-c3ccccc3)nc2c1 (stereo partly shown) [Compound 407] | 100 to 1000 | 
CC(C)(C)OC(=O)N[C@H]1CCCCC/C=C\[C@@H]2C[C@@]2(C(=O)O)NC(=O)[C@@H]2C[C@@H](Oc3cc(C(F)(F)F)nc4cc(O)ccc34)CN2C1=O [Compound 602] | < 100 | 
COc1ccc2c(O[C@@H]3C[C@H]4C(=O)N[C@]5(C(=O)O)C[C@H]5CC/C=C/CCC[C@H](NC(=O)OC(C)(C)C)C(=O)N4C3)cc(-c3ccccc3)nc2c1 [Compound 401] | < 100 | 
CNc1nc(-c2cc(O[C@@H]3C[C@H]4C(=O)N[C@]5(C(=O)O)CC5/C=C\CCCCC[C@H](NC(=O)OC5CCCC5)C(=O)N4C3)c3ccc(OC)cc3n2)cs1 (stereo partly shown) [Compound 811] |  | EC50 (NS3 protease): ≤ 1000 nM
COc1ccc2c(O[C@@H]3C[C@H]4C(=O)N[C@]5(C(=O)O)CC5/C=C\CCCCC[C@H](NC(=O)OC(C)(C)C)C(=O)N4C3)cc(-n3cnc(C)c3)nc2c1 (stereo partly shown) [Compound 722] |  | EC50 (NS3 protease): ≤ 1000 nM
COC(=O)Nc1nc(-c2cc(O[C@@H]3C[C@H]4C(=O)N[C@]5(C(=O)O)CC5/C=C\CCCCC[C@H](NC(=O)OC5CCCC5)C(=O)N4C3)c3ccc(OC)cc3n2)cs1 (stereo partly shown) [Compound 818] |  | EC50 (NS3 protease): ≤ 1000 nM
